# Assay results as given in patent US20070027145A1, “Quinazoline derivatives as inhibitors of vegf receptor tyrosine kinases” (priority 2003, published 2007).
# Columns and labels:
# KDR = target: T1, KDR (Homo sapiens, UniProt P35968); assay: In vitro receptor tyrosine kinase inhibition test (a), KDR; format: biochemical; conditions: read-out: IC50 in the enzyme assay (a) against KDR
# T1 construct: made in house; host or cells: insect cells (e.g. Spodoptera frugiperda Sf21), recombinant baculovirus
# Source text: (§1) This assay determines the ability of a test compound to inhibit tyrosine kinase activity. DNA encoding VEGF or epidermal growth factor (EGF) receptor cytoplasmic domains may be obtained by total gene synthesis (Edwards M, International Biotechnology Lab 5(3), 19-25, 1987) or by cloning. These may then be expressed in a suitable expression system to obtain polypeptide with tyrosine kinase activity. […] In the case of the VEGF receptor Flt (Genbank accession number X51602), a 1.7 kb DNA fragment encoding most of the cytoplasmic domain, commencing with methionine 783 and including the termination codon, described by Shibuya et al (Oncogene, 1990, 5: 519-524), was isolated from cDNA and cloned into a baculoviris transplacement vector (for example pAcYM1 (see The Baculovirus Expression System: A Laboratory Guide, L. A. King and R. D. Possee, Chapman and Hall, 1992) or pAc360 or pBlueBacHis (available from Invitrogen Corporation)). This recombinant construct was co-transfected into insect cells (for example Spodoptera frugiperda 21(Sf21)) with viral DNA (eg Pharmingen BaculoGold) to prepare recombinant baculovirus. […]
# Flt-1 = target: T2, Flt-1 (Homo sapiens, UniProt P17948); assay: In vitro receptor tyrosine kinase inhibition test (a), Flt-1; format: biochemical; conditions: read-out: IC50 in the enzyme assay (a) against Flt-1
# T2 construct: encoding most of the cytoplasmic domain, commencing with methionine 783 and including the termination codon; made in house; host or cells: Sf21 insect cells, recombinant baculovirus
# T2 sequence (P17948 781-1338 limits assumed): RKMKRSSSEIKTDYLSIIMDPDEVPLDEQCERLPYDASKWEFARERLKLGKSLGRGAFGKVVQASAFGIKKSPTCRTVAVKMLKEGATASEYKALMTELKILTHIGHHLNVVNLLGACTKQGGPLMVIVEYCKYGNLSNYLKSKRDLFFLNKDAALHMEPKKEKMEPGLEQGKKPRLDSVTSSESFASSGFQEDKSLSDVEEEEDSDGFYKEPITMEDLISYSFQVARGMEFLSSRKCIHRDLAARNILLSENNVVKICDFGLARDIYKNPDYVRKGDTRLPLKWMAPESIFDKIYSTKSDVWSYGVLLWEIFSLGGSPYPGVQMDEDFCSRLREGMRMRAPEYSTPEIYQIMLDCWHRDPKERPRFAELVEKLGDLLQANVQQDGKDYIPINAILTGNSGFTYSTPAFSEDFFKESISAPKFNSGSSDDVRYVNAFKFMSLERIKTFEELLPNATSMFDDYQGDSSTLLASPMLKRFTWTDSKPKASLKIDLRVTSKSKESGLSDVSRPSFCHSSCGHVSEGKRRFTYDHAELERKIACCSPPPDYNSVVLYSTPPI
# Source text: as §1
# EGFR = target: T3, EGFR (Homo sapiens, UniProt P00533); assay: In vitro receptor tyrosine kinase inhibition test (a), EGFR; format: biochemical; conditions: read-out: IC50 in the enzyme assay (a) against EGFR
# T3 construct: made in house; host or cells: insect cells (e.g. Spodoptera frugiperda Sf21), recombinant baculovirus
# Source text: as §1
# [1] = test system: VEGF-stimulated proliferation of human umbilical vein endothelial cells (HUVEC); assay: In vitro HUVEC proliferation assay (b), VEGF-stimulated; format: cell-based; conditions: VEGF 3 ng/ml, read-out: IC50 in the HUVEC assay (b) with respect to VEGF
# Procedure: (§2) This assay determines the ability of a test compound to inhibit the growth factor-stimulated proliferation of human umbilical vein endothelial cells (HUVEC).
# (§3) HUVEC cells were isolated in MCDB 131 (Gibco BRL)+7.5% v/v fetal calf serum (PCS) and were plated out (at passage 2 to 8), in MCDB 131+2% v/v FCS+3 μg/ml heparin+1 µg/ml hydrocortisone, at a concentration of 1000 cells/well in 96 well plates. After a minimum of 4 hours they were dosed with the appropriate growth factor (i.e. VEGF 3 ng/ml, EGF 3 ng/ml or b-FGF 0.3 ng/ml) and compound. The cultures were then incubated for 4 days at 37° C. with 7.5% carbon dioxide. On day 4 the cultures were pulsed with 1 μCi/well of tritiated-thymidine (Amersham product TRA 61) and incubated for 4 hours. The cells were harvested using a 96-well plate harvester (Tomtek) and then assayed for incorporation of tritium with a Beta plate counter. Incorporation of radioactivity into cells, expressed as cpm, was used to measure inhibition of growth factor-stimulated cell proliferation by compounds.
# [2] = test system: EGF-stimulated proliferation of human umbilical vein endothelial cells (HUVEC); assay: In vitro HUVEC proliferation assay (b), EGF-stimulated; format: cell-based; conditions: EGF 3 ng/ml, read-out: IC50 in the HUVEC assay (b) with respect to EGF
# Procedure: as §2, §3
# [3] = target: T4, human ether-a-go-go-related-gene (hERG)-encoded potassium channel (Homo sapiens, UniProt Q12809); assay: hERG-encoded potassium channel inhibition test (d); format: cell-based; conditions: HEK cells, whole cell patch clamp, tail current
# T4 construct: expressed in transfected cells; host or cells: Human embryonic kidney (HEK) cells under G418 selection
# Procedure: This assay determines the ability of a test compound to inhibit the tail current flowing through the human ether-a-go-go-related-gene (hERG)-encoded potassium channel.
# Human embryonic kidney (HEK) cells expressing the hERG-encoded channel were grown in Miniium Essential Medium Eagle (EMEM; Sigma-Aldrich catalogue number M2279), supplemented with 10% Foetal Calf Serum (Labtech Internation; product number 4-101-500), 10% M1 serum-free supplement (Egg Technologies; product number 70916) and 0.4 mg/ml Geneticin G418 (Sigma-Aldrich; catalogue number G7034). […]
# For each cell recorded, a glass coverslp containing the cells were placed at the bottom of a Perspex chamber containging bath solution (see below) at ambient temperature (˜20° C.). […]
# The cell was recorded in the whole cell configutation of the patch clamp technique. […]
# The amplitude of the hERG-encoded potassium channel tail current following the step from +40 mV to −50 mV was recorded on-line by Clampex software (Axon Instruments). […]
# The effect of each concentration of test compound was quantified by expressing the tail current amplitude in the presence of a given concentration of test compound as a percentage of that in the presence of vehicle.
# Test compound potency (IC50) was determined by fitting the percentage inhibition values making up the concentration-effect to a four parameter Hill equation using a standard data-fitting package.
# T3 sequence (P00533 669-1210 limits assumed): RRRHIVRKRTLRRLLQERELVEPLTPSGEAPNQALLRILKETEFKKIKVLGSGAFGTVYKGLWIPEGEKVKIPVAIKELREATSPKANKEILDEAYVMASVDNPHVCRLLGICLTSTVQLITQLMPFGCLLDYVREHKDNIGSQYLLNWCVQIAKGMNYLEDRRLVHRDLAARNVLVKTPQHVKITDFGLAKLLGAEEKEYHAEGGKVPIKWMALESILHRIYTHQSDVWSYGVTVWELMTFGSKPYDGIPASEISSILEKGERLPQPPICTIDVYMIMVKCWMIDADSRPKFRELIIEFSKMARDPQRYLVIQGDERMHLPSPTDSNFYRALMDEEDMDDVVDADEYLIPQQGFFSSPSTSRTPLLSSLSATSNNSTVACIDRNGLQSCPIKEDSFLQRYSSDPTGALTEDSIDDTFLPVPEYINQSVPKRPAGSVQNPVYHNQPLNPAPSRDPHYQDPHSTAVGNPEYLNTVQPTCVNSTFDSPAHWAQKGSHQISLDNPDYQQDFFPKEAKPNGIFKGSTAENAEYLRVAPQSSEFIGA
# T1 sequence (P35968 786-1356 limits assumed): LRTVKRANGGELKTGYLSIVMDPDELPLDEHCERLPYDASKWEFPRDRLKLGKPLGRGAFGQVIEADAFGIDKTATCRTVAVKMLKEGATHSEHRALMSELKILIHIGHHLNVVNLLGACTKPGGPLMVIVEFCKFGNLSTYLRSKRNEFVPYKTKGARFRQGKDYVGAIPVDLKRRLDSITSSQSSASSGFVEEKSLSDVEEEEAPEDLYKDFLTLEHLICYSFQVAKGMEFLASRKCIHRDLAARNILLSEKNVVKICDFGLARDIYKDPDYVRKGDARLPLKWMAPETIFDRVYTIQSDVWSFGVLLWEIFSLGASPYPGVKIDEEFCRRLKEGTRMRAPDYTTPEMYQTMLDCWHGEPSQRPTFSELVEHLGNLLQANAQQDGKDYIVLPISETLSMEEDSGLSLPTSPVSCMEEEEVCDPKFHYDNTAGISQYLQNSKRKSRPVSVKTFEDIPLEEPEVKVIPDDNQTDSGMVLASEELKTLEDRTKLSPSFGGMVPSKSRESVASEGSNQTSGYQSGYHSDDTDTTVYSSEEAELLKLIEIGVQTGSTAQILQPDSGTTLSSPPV
# T4 sequence (Q12809 whole entry): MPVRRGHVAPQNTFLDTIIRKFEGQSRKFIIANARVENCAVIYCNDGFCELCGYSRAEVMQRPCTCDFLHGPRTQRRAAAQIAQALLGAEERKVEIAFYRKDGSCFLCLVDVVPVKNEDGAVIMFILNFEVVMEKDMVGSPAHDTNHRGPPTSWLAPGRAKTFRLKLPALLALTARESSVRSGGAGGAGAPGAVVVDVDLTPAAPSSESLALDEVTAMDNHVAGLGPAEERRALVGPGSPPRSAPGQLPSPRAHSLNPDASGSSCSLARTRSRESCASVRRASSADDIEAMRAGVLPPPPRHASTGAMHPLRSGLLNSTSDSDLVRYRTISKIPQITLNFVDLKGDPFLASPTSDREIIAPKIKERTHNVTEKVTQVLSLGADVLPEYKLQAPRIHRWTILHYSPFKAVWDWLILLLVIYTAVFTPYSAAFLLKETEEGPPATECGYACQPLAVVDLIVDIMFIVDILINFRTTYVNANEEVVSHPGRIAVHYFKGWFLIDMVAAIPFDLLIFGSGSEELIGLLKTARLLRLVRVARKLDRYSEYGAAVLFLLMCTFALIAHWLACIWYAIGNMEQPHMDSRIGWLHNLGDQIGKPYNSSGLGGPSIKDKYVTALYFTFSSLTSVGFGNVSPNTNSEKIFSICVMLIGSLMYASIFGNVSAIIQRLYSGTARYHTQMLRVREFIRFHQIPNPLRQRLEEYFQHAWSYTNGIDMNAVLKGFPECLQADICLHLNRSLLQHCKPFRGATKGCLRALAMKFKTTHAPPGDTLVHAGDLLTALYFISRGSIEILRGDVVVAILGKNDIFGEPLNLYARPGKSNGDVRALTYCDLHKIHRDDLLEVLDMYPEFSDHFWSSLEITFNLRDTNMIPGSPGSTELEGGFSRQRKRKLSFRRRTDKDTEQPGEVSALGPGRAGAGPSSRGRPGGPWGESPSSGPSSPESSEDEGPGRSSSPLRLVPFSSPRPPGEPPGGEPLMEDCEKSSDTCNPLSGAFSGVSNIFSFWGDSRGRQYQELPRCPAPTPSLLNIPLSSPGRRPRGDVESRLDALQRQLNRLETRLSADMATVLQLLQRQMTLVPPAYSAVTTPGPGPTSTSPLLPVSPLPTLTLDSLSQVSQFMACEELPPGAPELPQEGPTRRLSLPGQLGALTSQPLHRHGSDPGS
smiles,measurement,setting,value
"COc1cc2c(Nc3ccc(Br)cc3F)ncnc2cc1OCC1CCN(C(=O)CN(C)C)CC1 [Example 1, 4-(4-bromo-2-fluoroanilino)-7-({1-[(N,N-dimethylamino)acetyl]piperidin-4-yl}methoxy)-6-methoxyquinazoline]",IC50,KDR,0.029 µM
same,IC50,Flt-1,0.49 µM
same,IC50,EGFR,0.072 µM
same,IC50,[1],0.0114 µM
same,IC50,[2],0.1 µM
same,IC50,[3],1.5 µM
